Test results published in US10697970B2, “S100A9 levels for predicting lenalidomide and erythropoietin responsiveness” (H. LEE MOFFITT CANCER CENTER AND RESEARCH INSTITUTE, INC., priority 2015, dated 2020).

Columns and labels:
[1] = system: HepG2 cells; assay: Epo elaboration by HepG2 cells (ELISA); format: cell-based, human
Protocol: HepG2 cells, acquired from American Type Culture Collection (ATCC, Manassas, Va.), were grown in EMEM supplemented with 10% FBS and 1% penicillin/streptomycin solution. Cells were maintained at 37° C. under 5% CO2.
(§1) Quantitation of human S100A9/MRP14 in patient serum and supernatant of the HepG2 cell line was performed using CircuLex S100A9/MRP14 ELISA Kit (MBL, Nagano, Japan). Quantitative measurement of human TNFα and IL-1β from serum patients and supernatant of HepG2 cell line were performed using Human IL-1β ELISA Kit and Human TNFα ELISA Kit (Life Technologies, Carlsbad, Calif., USA). Quantitation of human Epo in patient serum and HepG2 cell line supernatant was performed using Human Erythropoietin ELISA kit (Stemcell Technologies, Vancouver, BC, Canada). All samples were performed in duplicate.

[2] = system: HepG2 cells; assay: IL10 mRNA qPCR in HepG2 cells; format: cell-based, human
Protocol: RNA was isolated using the RNAeasy Mini Kit (Qiagen, Valencia, Calif., USA) followed by iScript cDNA synthesis (Bio-Rad, Hercules, Calif., USA) and amplification using iQ SYBR Green Supermix (Bio-Rad, Herculed, Calif., USA). The relative level of gene expression for each experimental sample was calculated by the ΔΔCt method. Untreated cells were the experimental control and the housekeeping gene GAPDH was the endogenous control.

[3] = system: NF-κB; assay: Cytoplasmic and nuclear NF-κB western blotting in HepG2 cells; format: cell-based, human; details: HepG2, 24 h, 1 μM lenalidomide pre-incubation, then S100A9 or TNFα
Protocol: After treatment for 24 h, cells were harvested and lysed in 1×RIPA buffer supplemented with protease and phosphatase inhibitors for classical western blotting. For the nuclear extraction, cells were lysed in ice with buffer A, then pelleted. After removed supernatant (cytoplasmic fraction), pellets were lysed in ice with buffer B and pelleted (nuclear fraction) (Nuclear extraction kit, Abcam, Cambridge, USA). Lysates were pelleted and 50 μg of protein was resolved by SDS-PAGE and transferred to PVDF membranes. The membranes were blocked for 30 min in 5% non-fat dry milk solution in PBST (PBS with 0.1% Tween 20) and incubated with the indicated antibodies. Membranes were developed using ECL according to the manufacturer's protocol (GE Healthcare, Little Chalfont, UK). Densitometry analysis was performed using Image J Software.

[4] = system: PBMC isolated from non-del(5q) MDS patients; assay: S100A9 production by PBMC from MDS patients (ELISA); format: cell-based, human; details: PBMC from MDS patients (n=7), 1 μM lenalidomide, 24 hours
Protocol: as §1
(§2) Serum samples used for ELISA analysis were collected from 4 centers (Taussig Cancer Institute in Cleveland; AOU Careggi, University of Firenze; Saint Louis hospital in Paris; H. Lee Moffitt Cancer Center in Tampa). Peripheral blood mononuclear cells (PBMC) were collected from patients seen at Moffitt Cancer Center All patients were consented on Institutional Review Boards, or equivalent, approved protocols in hematology clinics at each center, and from the Eastern Cooperative Oncology Group (ECOG) E2905 trial (NCT00843882). All routine clinical and biological data were available.

[5] = system: MDS PBMC; assay: LPS-induced TNFα production by MDS PBMC; format: cell-based, human; details: MDS PBMC (n=7), 1 μM lenalidomide 30 minutes prior to LPS (1 μg/ml), 24 h
[6] = system: non-del(5q) MDS patients; assay: Erythroid response to ESA or lenalidomide treatment by serum TNFα / S100A9 concentration; format: in vivo, human
From the text: as §2
Data are expressed as mean±standard error for continuous variables, or percentage of total for non-continuous variables. Spearman's correlation, Mann-Withney and Jonckheere-Terpstra tests were used for analysis of continuous variables. Chi-square test was used for analysis of non-continuous variables. Differences between the results of comparative tests were considered significant if the two-sided p-value was less than 0.05. All statistical analyses were performed using SPSS v.22 software (IBM SPSS Statistics).

[7] = system: MDS patients; details: cited from earlier work
[8] = lenalidomide or lenalidomide + Epo

Nc1cccc2c1CN(C1CCC(=O)NC1=O)C2=O (centres unmarked) [lenalidomide, Lenalidomide]
effect on IL-1β-directed suppression of Epo elaboration ([1]; HepG2, 1 μM lenalidomide 30 minutes prior to IL-1β (10 ng/ml)): no effect | suppression of Epo production by S100A9 after lenalidomide pre-incubation ([1]; HepG2, 1 μM lenalidomide 30 minutes prior to S100A9 (1 μg/ml)): 65% | suppression of Epo elaboration by TNFα after lenalidomide pre-incubation ([1]; HepG2, 1 μM lenalidomide 30 minutes prior to TNFα (10 ng/ml)): 0% | IL10 gene message following IL-1β treatment ([2]; HepG2, 1 μM lenalidomide pre-incubation): no modulatory effect | IL10 mRNA expression compared to S100A9 or TNFα treatment alone ([2]; HepG2, 24 h, 1 μM lenalidomide 30 minutes prior to S100A9 (1 μg/ml) or TNFα (10 ng/ml)): significantly increased | NF-κB in nuclear fractions [3]: significant reduction | S100A9 elaboration [4]: significant reduction | TNFα production induced by LPS [5]: significantly reduced | erythroid response rate, high (above the median) serum TNFα [6, 8]: 14% | erythroid response rate, low (below the median) serum TNFα [6, 8]: 64% | erythroid response rate, high TNFα and low S100A9 ([6]; lenalidomide treatment): 12% | erythroid response rate, low TNFα and high S100A9 concentrations ([6]; lenalidomide treatment): 62% | response in patients with an interstitial deletion of Chromosome 5q ([7]; MDS patients with del 5q): high rate of response | patients without 5q deletions who benefit from therapy ([7]; MDS patients without 5q deletions): Approximately 25%
